Laboratory results reported in patent US20080200467A1, “SOLUBLE EPOXIDE HYDROLASE INHIBITORS” (Arete Therapeutics, Inc., priority 2006, published 2008).
Values belong to the molecule of their own block, whether it stands above or below them.

Legend:
[1] = system: soluble epoxide hydrolase (sEH); test: Fluorescent Assay for Mouse and Human Soluble Epoxide Hydrolase (CMNPC substrate); assay type: biochemical; conditions: Concentration 2000 nM
[2] = system: soluble epoxide hydrolase (sEH); test: as above; assay type: biochemical
Excerpt: Fluorescent Assay for Mouse and Human Soluble Epoxide Hydrolase Recombinant mouse sEH (MsEH) and human sEH (HsEH) were produced in a baculovirus expression system as previously reported. Grant et al., J. Biol. Chem., 268:17628-17633 (1993); Beetham et al., Arch. Biochem. Biophys., 305:197-201 (1993). The expressed proteins were purified from cell lysate by affinity chromatography. Wixtrom et al., Anal. Biochem., 169:71-80 (1988). Protein concentration was quantified using the Pierce BCA assay using bovine serum albumin as the calibrating standard. The preparations were at least 97% pure as judged by SDS-PAGE and scanning densitometry. They contained no detectable esterase or glutathione transferase activity which can interfere with the assay. The assay was also evaluated with similar results in crude cell lysates or homogenate of tissues. The IC50s for each inhibitor were according to the following procedure: [drawing 218] […] Jones P. D. et. al.; Analytical Biochemistry 2005; 343: pp. 66-75) Bis/Tris HCl 25 mM pH 7.0 containing 0.1 mg/mL of BSA (buffer […] at 0.25 mM in DMSO. Mother solution of enzyme in buffer A (Mouse sEH at 6 μg/mL and Human sEH at 5 μg/mL). Inhibitor dissolved in DMSO at the appropriate concentration. In a black 96 well plate, fill all the wells with 150 μL of buffer A. Add 2 μL of DMSO in well A2 and A3, and then add 2 μL of inhibitor solution in A1 and A4 through A12. Add 150 μL of buffer A in row A, then mix several time and transfer 150 μL to row B. Repeat this operation up to row H. The 150 μL removed from row H is discarded. Add 20 μL of buffer A in column 1 and 2, then add 20 μL of enzyme solution to column 3 to 12. Incubate the plate for 5 minutes in the plate reader at 30° C. During incubation prepare the working solution of substrate by mixing 3.68 mL of buffer A (4×0.920 mL) with 266 μL (2×133 μL) of substrate solution). At t=0, add 30 μL of working substrate solution with multi-channel pipette labeled “Briggs 303” and start the reading ([S]final: 5 μM). Read with ex: 330 nm (20 nm) and em: 465 nm (20 nm) every 30 second for 10 minutes. The velocities are used to analyze and calculate the IC50s. Tables 4-6 show the activity of compounds when tested with the assay at 50, 500, 5000, 50000, and 500000 nM.

% Inhibition [1]: 81%
SMILES: O=C(NCCc1ccc(C(=O)N2CCOCC2)cc1)C(O)CCC12CC3CC(CC(C3)C1)C2 (centres unmarked) [Compound 157, 4-Adamantan-1-yl-2-hydroxy-N-(4-(morpholine-4-carbonyl)phenethyl)butanamide]

% Inhibition ([2]; Concentration 50000 nM): 98%
melting point: 219 to 220 °C
SMILES: O=C(Nc1ccc(-n2ccnc2)cc1)C(O)C12CC3CC(CC(C3)C1)C2 (centres unmarked) [Compound 119, 2-Adamantan-1-yl-2-hydroxy-N-(4-imidazol-1-yl-phenyl)-acetamide]

% Inhibition ([2]; Concentration 5000 nM): 89%
SMILES: O=C(Nc1ccc(OCc2ccccc2)cc1)C(O)CCc1ccc(C(F)(F)F)cc1 (centres unmarked) [Compound 130]

% Inhibition ([2]; Concentration 5000 nM): 82%
SMILES: Cc1ccc(S(=O)(=O)N2CCC(NC(=O)C(O)C3CCCCC3)CC2)cc1 (centres unmarked) [Compound 137, 2-Cyclohexyl-2-hydroxy-N-(1-tosylpiperidin-4-yl)acetamide]

% Inhibition ([2]; Concentration 5000 nM): 78%
SMILES: O=C(Nc1cccc(OCc2ccccc2)c1)C(O)CC1CCCCC1 (centres unmarked) [Compound 126, N-(3-Benzyloxy-phenyl)-3-cyclohexyl-2-hydroxy-propionamide]

Continued, molecule first:

SMILES: O=C(Nc1cccc(OCc2ccccc2)c1)C(=O)C12CC3CC(CC(C3)C1)C2 [Compound 13, 2-Adamantan-1-yl-N-(3-benzyloxy-phenyl)-2-oxo-acetamide]
% Inhibition ([2]; Concentration 5000 nM): 86%
melting point: 106 to 107 °C

SMILES: O=C(CCC12CC3CC(CC(C3)C1)C2)C(=O)NCCc1ccc(OCc2ccccc2)cc1 [Compound 25]
% Inhibition [1]: 23%

SMILES: O=C(Nc1cccc(OCc2ccccc2)c1)C(O)C12CC3CC(CC(C3)C1)C2 (centres unmarked) [Compound 110, 2-Adamantan-1-yl-N-(3-benzyloxy-phenyl)-2-hydroxy-acetamide]
% Inhibition ([2]; Concentration 500 nM): 79%
melting point: 130 to 132 °C

SMILES: Cc1ccc(S(=O)(=O)N2CCC(NC(=O)C(=O)c3ccc(C(F)(F)F)cc3)CC2)cc1 [Compound 9, 2-Oxo-N-[1-(toluene-4-sulfonyl)-piperidin-4-yl]-2-(4-trifluoromethyl-phenyl)-acetamide]
% Inhibition ([2]; Concentration 50000 nM): 72%

SMILES: O=C(NC12CC3CC(CC(C3)C1)C2)C(O)c1cccc(OCc2ccccc2)c1 (centres unmarked) [Compound 103, N-Adamantan-1-yl-2-(3-benzyloxy-phenyl)-2-hydroxy-acetamide]
% Inhibition ([2]; Concentration 5000 nM): 87%

SMILES: CCCC(=O)N1CCC(NC(=O)C(=O)C2CCCCC2)CC1 [Compound 16, N-(1-Butyryl-piperidin-4-yl)-2-cyclohexyl-2-oxo-acetamide]
% Inhibition ([2]; Concentration 50000 nM): 62%

SMILES: O=C(Nc1ccc(OCc2ccccc2)cc1)C(=O)C12CC3CC(CC(C3)C1)C2 [Compound 20]
% Inhibition ([2]; Concentration 5000 nM): 93%

SMILES: O=C(CCc1ccc(C(F)(F)F)cc1)C(=O)Nc1ccc(OCc2ccccc2)cc1 [Compound 23]
% Inhibition ([2]; Concentration 50000 nM): 93%

SMILES: O=C(NCC12CC3CC(CC(C3)C1)C2)C(O)Cc1ccc(OCc2ccccc2)cc1 (centres unmarked) [Compound 106, N-Adamantan-1-ylmethyl-3-(4-benzyloxy-phenyl)-2-hydroxy-propionamide]
% Inhibition ([2]; Concentration 500 nM): 82%
